Key:
p38 MAPK = settings: neurons preincubated in vitro; cited from earlier work
[1] = test system: Alzheimer's disease (AD) transgenic Tg2576 mouse model; test: Amyloid plaque load by Aβ immunohistochemistry after 2-week oral treatment of Tg2576 mice; format: in vivo; settings: Tg2576 mice aged 26 months, 3 mg/kg BID oral, 2 weeks
IL-1β = IL-1β ELISA of brain tissue of treated Tg2576 mice; format: in vivo, mouse; settings: 3 mg/kg BID, 2 weeks, soluble dorsal cortex fraction
[2] = cited from earlier work
rodent arthritis models = settings: cited from earlier work
arthritis model = settings: 10 mg/kg dose, reference compound; cited from earlier work
osteoarthritis model = settings: rats, 50 mg/kg; cited from earlier work
hyperalgesia model = settings: cited from earlier work
[3] = animals; cited from earlier work
[4] = dogs; cited from earlier work
[5] = cited from earlier work; remark: listed apart in the source
[6] = high doses; cited from earlier work

SMILES | blocking of the enhancement of MAPT phosphorylation (p38 MAPK) | decrease of amyloid plaque area in the cortex as compared with vehicle ([1]; cortex) [%] | mean amyloid plaque area, cortex ([1]; cortex (vehicle control 27.7%)) [%] | decrease of amyloid plaque area in the hippocampus as compared with vehicle ([1]; hippocampus) [%] | mean amyloid plaque area, hippocampus ([1]; hippocampus (vehicle control 13.6%)) [%] | IL-1β levels compared to wild-type or control animals (IL-1β) | adverse events in rheumatoid arthritis patients ([2]; 250 mg b.i.d., humans) | adverse neurological effects in humans [2] | therapeutically effective unit dose for the treatment of rheumatoid arthritis ([2]; humans) [mg] | anti-inflammatory activity (rodent arthritis models) | inhibition of paw swelling (arthritis model) | inhibition of knee degeneration compared to control animals (osteoarthritis model) | effect on hyperalgesia at the lowest dose (hyperalgesia model; 3 mg/kg dose) | inhibition of hyperalgesic response (hyperalgesia model; rats, doses of 30 mg/kg, 10 mg/kg and 3 mg/kg) | blood brain barrier penetration [3] | brain levels relative to systemic levels [4] | plasma protein binding [5] | adverse neurological effects in animals [6]
C[S+]([O-])c1ccc(-c2nc(-c3ccc(F)cc3)c(-c3ccncc3)[nH]2)cc1 (stereo not drawn) [SB203580] | could be blocked |  |  |  |  |  |  |  |  |  |  |  |  |  |  |  |  | 
O=c1ncn2nc(Sc3ccc(F)cc3F)ccc2c1-c1c(Cl)cccc1Cl [VX-745] |  | 32.5 | 18.7 | 61.8 | 5.2 | no increases in IL-1β levels | adverse events, including gastrointestinal effects such as diarrhea and abdominal pain, and elevations in liver transaminases | not observed in humans | 250 | significant anti-inflammatory activity | not as effective at inhibiting paw swelling as other compounds assayed | statistically significant inhibition of knee degeneration | minimal effect | significant inhibition of hyperalgesic response | known to penetrate the blood brain barrier (BBB) | twice that of systemic levels | highly protein-bound | experienced adverse neurological effects
